Results published in patent US8680071B2 (Idenix Pharmaceuticals, Inc., priority 2010, dated 2014).
pEC50: −log10 of the molar value. Like-named read-outs stand apart in the source and are kept apart here.

Tests used:
[1] = Cytotoxicity evaluation (Cell Titer 96 AQueous One Solution Cell Proliferation Assay); format: cell-based; conditions: human, GS4.1 cells, cellular viability, read-out: HCV Replicon CC50
Experimental: (§1) Huh-7 cells containing HCV Con1 subgenomic replicon (GS4.1 cells), (C. Seeger; Fox Chase University, Philadelphia, Pa., USA), are grown in Dulbecco's Modified Eagle Medium (DMEM) supplemented with 10% fetal bovine serum (FBS), 2 mM L-glutamine, 110 mg/L sodium pyruvate, 1× non-essential amino acids, 100 U/mL penicillin-streptomycin and 0.5 mg/mL G418 (Invitrogen). For dose-response testing, the cells are seeded in 96-well plates at 7.5×10^3 cells/well in a volume of 50 μL and incubated at 37° C./5% CO2. Three hours after plating, 50 μL of ten 2-fold serial dilutions of compounds (highest concentration, 75 μM) are added and cell cultures were incubated at 37° C./5% CO2 in the presence of 0.5% DMSO. Alternatively, compounds are tested at a single concentration of 15 μM. In all cases, Huh-7 cells lacking the HCV replicon served as negative control. The cells are incubated in the presence of compounds for 72 hours after which they were monitored for expression of the NS4A protein by enzyme-linked immunosorbent assay (ELISA). For this, the plates were then fixed for 1 min with 1:1 acetone:methanol, washed twice with phosphate-buffered saline (PBS), 0.1% Tween 20, blocked for 1 hour at room temperature with TNE buffer containing 10% FBS and then incubated for 2 h at 37° C. with the anti-NS4A mouse monoclonal antibody A-236 (ViroGen) diluted in the same buffer. After washing three times with PBS, 0.1% Tween 20, the cells are incubated 1 hour at 37° C. with anti-mouse immunoglobulin G-peroxidase conjugate in TNE, 10% FBS. After washing as described above, the reaction is developed with O-phenylenediamine (Zymed). The reaction is stopped after 30 minutes with […] and the absorbance is read at 492 nm using a Sunrise Tecan spectrophotometer. EC50 values are determined from the % inhibition versus concentration data using a sigmoidal non-linear regression analysis based on four parameters with Tecan Magellan software. When screening at a single concentration, the results are expressed as % inhibition at 15 μM. For cytotoxicity evaluation, GS4.1 cells are treated with compounds as described above and cellular viability was monitored using a Cell Titer 96 AQueous One Solution Cell Proliferation Assay (Promega). CC50 values are determined from the % cytotoxicity versus concentration data with Tecan Magellan software as described above.

[2] = system: HCV Con1 subgenomic replicon; test: HCV replicon assay (NS4A ELISA); format: cell-based; conditions: Hepatitis C virus; for pEC50: ELISA 2 assay, Huh-7 cells containing HCV Con1 subgenomic replicon (GS4.1 cells), 72 hours, NS4A expression, read-out: HCV Replicon EC50; for EC50: Huh-7, 72 h, read-out: HCV Replicon EC50 (μM)
Experimental: as §1
Compounds presented in the table below were assayed according to the replicon assay described above.

SMILES | CC50 at 72 h [1] | pEC50 [2] | EC50 [2]
C[C@@]1(O)[C@H](O)[C@@H](CO)O[C@H]1n1cnc2c(=O)[nH]c(N)nc21 [2′-C-methylguanosine, reference compound] | > 75 µM | 5.00 to 6.00 | 
COC(=O)C(CC(C)C)NP(=O)(NC(CC(C)C)C(=O)OC)OC[C@H]1O[C@@H](n2cnc3c(OC)nc(N)nc32)C(C)(O)C1O (stereo partly drawn) [Compound 3] | > 75 µM | > 6.00 | 
COC(=O)C(CC(C)C)NP(=O)(NC(CC(C)C)C(=O)OC)OC[C@H]1O[C@@H](n2cnc3c(OC)nc(N)nc32)[C@@]2(C)OC(=O)OC12 (stereo partly drawn) [Compound 4] | > 75 µM | > 6.00 | 
CCOC(=O)C(CC(C)C)NP(=O)(NC(CC(C)C)C(=O)OCC)OC[C@H]1O[C@@H](n2cnc3c(NC4CC4)nc(N)nc32)C(C)(O)C1O (stereo partly drawn) [Compound 6] | > 75 µM | > 6.00 | 
COC(=O)C(CC(C)C)NP(=O)(NC(CC(C)C)C(=O)OC)OC[C@H]1O[C@@H](n2cnc3c(NC4CC4)nc(N)nc32)C(C)(O)C1O (stereo partly drawn) [Compound 8] | > 75 µM | > 6.00 | 
COC(=O)C(CC(C)C)NP(=O)(NC(CC(C)C)C(=O)OC)OC[C@H]1O[C@@H](n2cnc3c(=O)[nH]c(N)nc32)C(C)(O)C1O (stereo partly drawn) [Compound 9] | > 75 µM |  | 1 to 10 µM
C#CC1(F)C(O)[C@@H](COP(=O)(NCC(=O)OCC)NCC(=O)OCC)O[C@H]1n1cnc2c(=O)[nH]c(N)nc21 (stereo partly drawn) [Compound 48] | > 75 µM |  | > 10 µM
CCOC(=O)CNP(=O)(NCC(=O)OCC)OC[C@H]1O[C@@H](n2cnc3c(=O)[nH]c(N)nc32)C(C)(O)C1O (stereo partly drawn) [Compound 54] | > 75 µM |  | 1 to 10 µM
C#C[C@@]1(F)[C@H](O)[C@@H](CO)O[C@H]1n1cnc2c(=O)[nH]c(N)nc21 [reference compound] | > 75 µM | < 5.00 | 
